# Key:
# [1] = target: T1, RORγ ligand binding domain (LBD) (Homo sapiens, UniProt P51449); assay: TR-FRET Activity Assay (ligand sensing assay, RORγ-LBD / coactivator peptide interaction); assay type: biochemical
# T1 construct: made in house; host or cells: E. coli BL-21 (BL3), vector pDEST15
# T1 sequence (P51449 269-508 limits assumed): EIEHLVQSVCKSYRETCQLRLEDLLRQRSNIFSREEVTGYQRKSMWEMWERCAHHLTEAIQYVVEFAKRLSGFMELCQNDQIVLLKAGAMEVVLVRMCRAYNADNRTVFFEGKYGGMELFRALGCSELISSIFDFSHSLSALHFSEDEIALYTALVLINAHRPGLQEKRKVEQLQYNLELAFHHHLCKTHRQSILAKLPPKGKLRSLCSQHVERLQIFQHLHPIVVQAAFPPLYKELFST
# Source text: This method measures the ability of putative ligands to modulate the interaction between the purified bacterial expressed RORγ ligand binding domain (LBD) and synthetic N-terminally biotinylated peptides which are derived from nuclear receptor coactivator proteins such as but not limited to SRC1 (NcoA1), SRC2 (NcoA2, TIF2), SRC3 (NcoA3), PGC1α, PGC1β, CBP, GRIP1, TRAP220, RIP140.
# The ligand-binding domain (LBD) of RORγ was expressed as fusion protein with GST in […] cells using the vector pDEST15. Cells were lysed by lysozyme-treatment and sonication, and the fusion proteins purified over glutathione sepharose (Pharmacia) according to the manufacturers instructions. For screening of compounds for their influence on the RORγ-peptide interaction, the LANCE technology (Perkin Elmer) was applied. This method relies on the binding dependent energy transfer from a donor to an acceptor fluorophor attached to the binding partner of interest. For ease of handling and reduction of background from compound fluorescence LANCE technology makes use of generic fluorophore labels and time resolved detection assays were done in a final volume of 25 μL in a 384 well plate, in a Tris-based buffer system (20 mM Tris-HCl pH6.8; 60 mM KCl, 1 mM DTT; 5 mM MgCl2; 35 ng/μL BSA), containing 20-60 ng/well recombinantly expressed RORγ-LBD fused to GST, 200-600 nM N-terminally biotinylated peptide, 200 ng/well Streptavidin-xIAPC conjugate (Prozyme) and 6-10 ng/well Eu W1024-antiGST (Perkin Elmer). DMSO content of the samples was kept at 1%.
# After generation of the Tris-based buffer system, the potentially RORγ modulating ligands were diluted. […] The LANCE signal was detected by a Perkin Elmer EnVision™ Multilabel Counter. The results were visualized by plotting the ratio between the emitted light at 665 nm and 615 nm. […] Ligands that promote the complex formation induce a concentration-dependent increase in time-resolved fluorescent signal.
# To assess the antagonistic potential of the compounds, IC50 values were determined using a Ligand Sensing Assay based on Time-resolved Fluorescence Energy Transfer (TR-FRET) as described above. The normalised TR-FRET assay values, using the following equation: 1000*665 nm measurement value/615 nm measurement value, were transferred to the program GraphPad Prism to generate graphs and dose response curves using the following equation: […]
# This is identical to the “four parameter logistic equation”. The IC50 values are calculated using this equation. […] Is is understood that the data illustrated below may have reasonable variation depending on the specific conditions and procedures used by the person conducting the test.
# RORγ = target: T2, RORγ (UniProt P51449); assay type: cell-based; conditions: 293T cells, 16 h; for pIC50 (FF): firefly (FF) luciferase; for pIC50 (REN): renilla normalised (RENnorm) luciferase
# T2 construct: hRORg-LBD|aa259-518|NP_005051.2; hRORgt|aa1-497|NP_001001523 (RORg, t isoform, 497aa); mRORg-LBD|aa264-516|NP_035411
# T2 sequence (P51449 1-518): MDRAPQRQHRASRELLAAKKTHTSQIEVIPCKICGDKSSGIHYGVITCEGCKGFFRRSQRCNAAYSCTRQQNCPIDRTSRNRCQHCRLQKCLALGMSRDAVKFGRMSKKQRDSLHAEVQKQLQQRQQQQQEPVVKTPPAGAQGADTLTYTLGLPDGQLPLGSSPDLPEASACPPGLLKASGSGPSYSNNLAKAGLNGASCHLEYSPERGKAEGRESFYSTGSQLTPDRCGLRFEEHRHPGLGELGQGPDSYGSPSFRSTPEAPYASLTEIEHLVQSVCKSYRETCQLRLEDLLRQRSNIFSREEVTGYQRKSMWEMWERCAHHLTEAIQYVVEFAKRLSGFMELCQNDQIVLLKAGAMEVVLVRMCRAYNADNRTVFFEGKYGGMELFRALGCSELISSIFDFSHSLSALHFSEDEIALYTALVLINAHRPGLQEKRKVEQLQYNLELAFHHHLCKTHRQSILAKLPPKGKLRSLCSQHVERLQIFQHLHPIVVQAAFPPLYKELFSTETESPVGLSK
Compound,IC50 [1],pIC50 (FF) (RORγ),pIC50 (REN) (RORγ)
"Cc1c(C(=O)NCCC(C)(C)C(=O)O)cn(-c2ccc(S(=O)(=O)NC(C)(C)C)c(C(F)(F)F)c2)c1CC1CCCCC1 [Example 4, 4-(1-(4-(N-(tert-Butyl)sulfamoyl)-3-(trifluoromethyl)phenyl)-5-(cyclohexylmethyl)-4-methyl-1H-pyrrole-3-carboxamido)-2,2-dimethylbutanoic acid]",501 nM,7.7,7.7
Cc1c(C(=O)N[C@H]2C[C@H](C(=O)O)C2)cn(-c2ccc(S(=O)(=O)NC(C)(C)C)c(C(C)(C)C)c2)c1CC1CCCCC1 [Example 4/1],1260 nM,7.2,7.3
"Cc1c(C(=O)N[C@H]2C[C@H](C(=O)O)C2)cn(-c2cc(C(C)(C)C)cc(C3(C)CC3)c2)c1C(=O)C1CCCCC1 [Example 6, (trans)-3-(1-(3-(tert-Butyl)-5-(1-methylcyclopropyl)phenyl)-5-(cyclohexanecarbonyl)-4-methyl-1H-pyrrole-3-carboxamido)cyclobutanecarboxylic acid]",501 nM,7.9,8.0
"Cn1c(C(=O)N[C@H]2C[C@H](C(=O)O)C2)cc(-c2cc(C(C)(C)C)cc(C3(C)CC3)c2)c1CC1CCCCC1 [Example 8, (trans)-3-(4-(3-(tert-BUTYL)-5-(1-methylcyclopropyl)phenyl)-5-(cyclohexylmethyl)-1-methyl-1H-pyrrole-2-carboxamido)cyclobutanecarboxylic acid]",1000 nM,7.6,7.7
Cn1c(C(=O)NCCC(C)(C)C(=O)O)cc(-c2ccc(S(=O)(=O)NC(C)(C)C)c(C(C)(C)C)c2)c1CC1CCCCC1 [Example 8/1],2000 nM,7.0,7.0
"Cc1c(C(=O)NCCC(C)(C)C(=O)O)c(Cl)n(-c2ccc(S(=O)(=O)NC(C)(C)C)c(C(F)(F)F)c2)c1CC1CCCCC1 [Example 9, 4-(1-(4-(N-(tert-Butyl)sulfamoyl)-3-(trifluoromethyl)phenyl)-2-chloro-5-(cyclohexylmethyl)-4-methyl-1H-pyrrole-3-carboxamido)-2,2-dimethylbutanoic acid]",794 nM,8.4,8.4
"Cc1c(C(=O)NCCC(C)(C)C(=O)O)c(C#N)n(-c2ccc(S(=O)(=O)NC(C)(C)C)c(C(F)(F)F)c2)c1CC1CCCCC1 [Example 10, 4-(1-(4-(N-(tert-Butyl)sulfamoyl)-3-(trifluoromethyl)phenyl)-2-cyano-5-(cyclohexylmethyl)-4-methyl-1H-pyrrole-3-carboxamido)-2,2-dimethylbutanoic acid]",1580 nM,6.9,6.9
"CC(C)(C)c1cc(-c2[nH]c(C(=O)NC3CCOCC3)cc2CC2CCCCC2)cc(C2(C)CC2)c1 [Example 12, 5-(3-(tert-Butyl)-5-(1-methylcyclopropyl)phenyl)-4-(cyclohexylmethyl)-N-(tetrahydro-2H-pyran-4-yl)-1H-pyrrole-2-carboxamide]",1000 nM,6.9,6.8
CC(C)(C)c1cc(-c2[nH]c(C(=O)N[C@H]3C[C@H](C(=O)O)C3)cc2CC2CCCCC2)cc(C2(C)CC2)c1 [Example 12/2],1260 nM,6.6,6.6
"Cc1c(C(=O)NC2CCOCC2)cn(-c2cc(C(C)(C)C)cc(C3(C)CC3)c2)c1C(=O)N1CCCCC1 [Example 13, 1-(3-(tert-Butyl)-5-(1-methylcyclopropyl)phenyl)-4-methyl-5-(piperidine-1-carbonyl)-N-(tetrahydro-2H-pyran-4-yl)-1H-pyrrole-3-carboxamide]",1000 nM,7.1,7.1
Cc1c(C(=O)N[C@H]2C[C@H](C(=O)O)C2)cn(-c2cc(C(C)(C)C)cc(C3(C)CC3)c2)c1C(=O)N1CCCCC1 [Example 13/1],1000 nM,6.7,6.8
"COC(c1c(C)c(C(=O)NC2CCOCC2)cn1-c1cc(C(C)(C)C)cc(C2(C)CC2)c1)C1CCCCC1 (stereo not drawn) [Example 14, 1-(3-(tert-Butyl)-5-(1-methylcyclopropyl)phenyl)-5-(cyclohexyl(methoxy)methyl)-4-methyl-N-(tetrahydro-2H-pyran-4-yl)-1H-pyrrole-3-carboxamide]",2000 nM,6.1,6.3
COC(c1c(C)c(C(=O)N[C@H]2C[C@H](C(=O)O)C2)cn1-c1cc(C(C)(C)C)cc(C2(C)CC2)c1)C1CCCCC1 (stereo partly drawn) [Example 14/1],1580 nM,6.6,6.6
"Cc1c(C(=O)NC2CCOCC2)cn(-c2cc(C(C)(C)C)cc(C3(C)CC3)c2)c1C(O)C1CCCCC1 (stereo not drawn) [Example 15, 1-(3-(tert-Butyl)-5-(1-methylcyclopropyl)phenyl)-5-(cyclohexyl(hydroxy)methyl)-4-methyl-N-(tetrahydro-2H-pyran-4-yl)-1H-pyrrole-3-carboxamide]",631 nM,7.0,7.0
"Cc1c(C(=O)N[C@H]2C[C@H](C(=O)O)C2)c(C)n(-c2cc(C(C)(C)O)cc(C3(C)CC3)c2)c1CC1CCCCC1 [Example 16, trans-3-(5-(Cyclohexylmethyl)-1-(3-(2-hydroxypropan-2-yl)-5-(1-methylcyclopropyl)phenyl)-2,4-dimethyl-1H-pyrrole-3-carboxamido)cyclobutanecarboxylic acid]",1580 nM,6.6,6.7
"CC(C)(O)c1cc(-c2cc(C(=O)N[C@H]3C[C@H](C(=O)O)C3)[nH]c2CC2CCCCC2)cc(C2(C)CC2)c1 [Example 17, trans-3-(5-(Cyclohexylmethyl)-4-(3-(2-hydroxypropan-2-yl)-5-(1-methylcyclopropyl)phenyl)-1H-pyrrole-2-carboxamido)cyclobutanecarboxylic acid]",1260 nM,6.4,6.3
CC(C)(C)c1cc(-c2cc(C(=O)N[C@H]3C[C@H](C(=O)O)C3)[nH]c2CC2CCCCC2)cc(C2(C)CC2)c1 [Example 17/1],794 nM,7.0,7.1
"CC(C)(C)c1cc(-c2[nH]c(C(=O)N[C@H]3C[C@H](C(=O)O)C3)c(Cl)c2CC2CCCCC2)cc(C2(C)CC2)c1 [Example 18, trans-3-(5-(3-(tert-Butyl)-5-(1-methylcyclopropyl)phenyl)-3-chloro-4-(cyclohexylmethyl)-1H-pyrrole-2-carboxamido)cyclobutanecarboxylic acid]",1260 nM,6.6,6.5
Cn1c(C(=O)N[C@H]2C[C@H](C(=O)O)C2)c(Cl)c(CC2CCCCC2)c1-c1cc(C(C)(C)C)cc(C2(C)CC2)c1 [Example 18/1],794 nM,6.6,6.7
Cn1c(C(=O)N[C@H]2C[C@H](C(=O)O)C2)cc(CC2CCCCC2)c1-c1cc(C(C)(C)C)cc(C2(C)CC2)c1 [Example 19/1],794 nM,7.2,7.2
